Assay results as given in patent US9783510B2, “Small molecule mediated transcriptional induction of E-cadherin” (Vanderbilt University, priority 2014, dated 2017).

tested on: E-cadherin expression in SW620 cells; assay: E-cadherin expression, in-cell Western (ICW), SW620 cells; assay type: cell-based; conditions: Homo sapiens, SW-620, 24 h, change in expression level of E-cadherin in response to 10 μM compound, 24 hours, SW620 cells
Method: SW620 and H520 cells (5×10^4/100 μL) were seeded in a 96-well plate prior to treatment. Cells were treated with 10 μM concentration of synthesized compound in quadruplicate for 24 hours in RPMI 1640 supplemented medium and 100 μg/mL penicillin-streptomycin. The cells were then fixed with 100% methanol for 20 minutes at 4° C. The wells were then washed 2 times with PBS, permeabilized in 2% bovine serum albumin (BSA) and 0.2% TritonX-100 in PBS for 30 minutes at room temperature with gentle agitation, and blocked in LI-COR blocking buffer for 30 minutes at room temperature with gentle agitation. The cells were then incubated with the following primary antibodies: anti-E-Cadherin (1:500) and anti-α-Tubulin (1:1000) diluted in blocking buffer (1:1 dilution in PBS) for 2 hours at room temperature with gentle agitation. The cells were washed 4 times in PBS-T for 5 minutes each, and then incubated with the following secondary antibodies conjugated to a fluorescent entity: IRDye 800-conjugated goat anti-rabbit IgG (1:1000) and IRDye-700-conjugated goat anti-mouse IgG (1:2000) in blocking buffer (1:1 dilution in PBS) with gentle agitation for 1 h at room temperature. The cells were washed 4 times in PBS-T for 5 minutes each followed by a single wash with PBS. All liquid was removed from the wells and the plates were visualized and analyzed on the Odyssey IR imaging system (LI-COR Biosciences).
The assay was further optimized in the following manner. The cells were washed 2 times with PBS, fixed in 100% methanol at room temperature for 15 minutes, and again washed 2 times with PBS. The cells were then incubated with the following primary antibodies: anti-E-Cadherin (1:200) and anti-α-Tubulin (1:2000) diluted in ice cold 2% bovine serum albumin (BSA) and 0.2% TritonX-100 in PBS for 1 hour at room temperature with gentle agitation. The cells were washed 2 times in PBS and then incubated with the following secondary antibodies conjugated to a fluorescent entity: Licor 800-conjugated goat anti-rabbit IgG (1:2000) and IRDye-700-conjugated goat anti-mouse IgG (1:2000) in ice cold 2% BSA and 0.2% TritonX-100 in PBS with gentle agitation for 45 minutes at room temperature. The wells were washed 2 times in PBS, dried, and analyzed as previously mentioned.
N-Acetamidoalkyl-5-arylisoxazole-3-carboxamide analogs were synthesized as described above. Changes in expression level of E-cadherin in response to 10 μM compound in SW620 cells was determined in a cell-based functional assay as described above, and the data are shown in Table III. The compound number corresponds to the compound numbers used in Table II.
EC50 of inducement of E-cadherin expression in SW620 cells was determined in a cell-based functional assay as described above, and the data are shown in Table V. The compound number corresponds to the compound numbers used in Table IV.

In order of rising fold induction at 10 µM:
1. N[C@@H](Cc1c[nH]c2ccccc12)C(=O)NCCNC(=O)c1cc(-c2ccccc2)on1 [Compound 6, (S)—N-(2-(2-amino-3-(1H-indol-3-yl)propanamido)ethyl)-5-phenylisoxazole-3-carboxamide]  0.92
2. O=C(CCCC[C@@H]1SC[C@@H]2NC(=O)N[C@@H]21)NCCCNC(=O)c1cc(-c2ccccc2)on1 (stereo in doubt) [Compound 19, N-(3-(5-((3aS,4S,6aR)-2-oxohexahydro-1H-thieno[3,4-d]imidazol-4-yl)pentanamido)propyl)-5-phenylisoxazole-3-carboxamide]  1.25
3. O=C(NCCCNC(=O)c1cc(Br)cnc1O)c1cc(-c2cccs2)on1 [Compound 50, N-(3-(5-bromo-2-hydroxynicotinamido)propyl)-5-(thiophen-2-yl)isoxazole-3-carboxamide]  1.4
4. COc1ccc(C(=O)NCCCNC(=O)c2cc(-c3cccs3)on2)c(OC)n1 [Compound 43, N-(3-(2,6-dimethoxynicotinamido)propyl)-5-(thiophen-2-yl)isoxazole-3-carboxamide]  1.45
5. COC(=O)c1ccc(C(=O)NCCCNC(=O)c2cc(-c3cccs3)on2)nc1 [Compound 48, methyl 6-((3-(5-(thiophen-2-yl)isoxazole-3-carboxamido)propyl)carbamoyl)nicotinate]  1.48
6. COC(=O)c1ccc(C(=O)NCCCNC(=O)c2cc(-c3ccccc3)on2)nc1 [Compound 66, methyl 6-((3-(5-phenylisoxazole-3-carboxamido)propyl)carbamoyl)nicotinate]  1.55
7. O=C(NCCCNC(=O)c1cc(-c2cccs2)on1)c1ccc(O)nc1 [Compound 49, N-(3-(6-hydroxynicotinamido)propyl)-5-(thiophen-2-yl)isoxazole-3-carboxamide]  1.71
8. O=C(NCCCNC(=O)c1cc(-c2cccs2)on1)c1ccnc(O)c1 [Compound 37, N-(3-(2-hydroxyisonicotinamido)propyl)-5-(thiophen-2-yl)isoxazole-3-carboxamide]  1.83
9. Cc1ccnc(O)c1C(=O)NCCCNC(=O)c1cc(-c2ccccc2)on1 [Compound 69, N-(3-(2-hydroxy-4-methylnicotinamido)propyl)-5-phenylisoxazole-3-carboxamide]  2
10. Cc1scnc1C(=O)NCCNC(=O)c1cc(-c2ccccc2)on1 [Compound 11, N-(2-(5-methylthiazole-4-carboxamido)ethyl)-5-phenylisoxazole-3-carboxamide]  2.08
11. O=C(NCCCNC(=O)c1cc(-c2cccs2)on1)c1cncc(F)c1 [Compound 54, N-(3-(5-fluoronicotinamido)propyl)-5-(thiophen-2-yl)isoxazole-3-carboxamide]  2.22
12. O=C(NCCCNC(=O)c1cnc2ccccn12)c1cc(-c2ccccc2)on1 [Compound 87, N-(3-(imidazo[1,2-a]pyridine-3-carboxamido)propyl)-5-phenylisoxazole-3-carboxamide]  2.4
13. O=C(NCCNC(=O)c1cc(-c2ccccc2)on1)c1cccc(O)c1 [Compound 8, N-(2-(3-hydroxybenzamido)ethyl)-5-phenylisoxazole-3-carboxamide]  2.44
14. O=C(NCCCNC(=O)c1nc2ncccn2n1)c1cc(-c2cccs2)on1 [Compound 108, N-(3-([1,2,4]triazolo[1,5-a]pyrimidine-2-carboxamido)propyl)-5-(thiophen-2-yl)isoxazole-3-carboxamide]  2.45
15. O=C(NCCCNC(=O)c1ccc(C(F)(F)F)o1)c1cc(-c2cccs2)on1 [Compound 76, 5-(thiophen-2-yl)-N-(3-(5-(trifluoromethyl)furan-2-carboxamido)propyl)isoxazole-3-carboxamide]  2.68
16. O=C(NCCCNC(=O)c1cnccc1O)c1cc(-c2ccccc2)on1 [Compound 30, N-(3-(4-hydroxynicotinamido)propyl)-5-phenylisoxazole-3-carboxamide]  2.69
17. N#Cc1ccnc(C(=O)NCCCNC(=O)c2cc(-c3cccs3)on2)c1 [Compound 82, N-(3-(4-cyanopicolinamido)propyl)-5-(thiophen-2-yl)isoxazole-3-carboxamide]  2.8
18. Cc1nc(C(=O)NCCCNC(=O)c2cc(-c3cccs3)on2)no1 [Compound 80, 5-methyl-N-(3-(5-(thiophen-2-yl)isoxazole-3-carboxamido)propyl)-1,2,4-oxadiazole-3-carboxamide]  2.83
19. O=C(Cc1cccc(O)c1)NCCNC(=O)c1cc(-c2ccccc2)on1 [Compound 7, N-(2-(2-(3-hydroxyphenyl)acetamido)ethyl)-5-phenylisoxazole-3-carboxamide]  2.92
20. O=C(NCCCNC(=O)c1ncccc1F)c1cc(-c2ccccc2)on1 [Compound 61, N-(3-(3-fluoropicolinamido)propyl)-5-phenylisoxazole-3-carboxamide]  2.94
21. Cn1cnc(C(=O)NCCCNC(=O)c2cc(-c3cccs3)on2)c1 [Compound 103, N-(3-(1-methyl-1H-imidazole-4-carboxamido)propyl)-5-(thiophen-2-yl)isoxazole-3-carboxamide]  3.02
22. O=C(NCCCNC(=O)c1cnc2ccccn12)c1cc(-c2cccs2)on1 [Compound 73, N-(3-(imidazo[1,2-a]pyridine-3-carboxamido)propyl)-5-(thiophen-2-yl)isoxazole-3-carboxamide]  3.04
23. O=C(NCCCNC(=O)c1cccc(Cl)n1)c1cc(-c2cccs2)on1 [Compound 81, N-(3-(6-chloropicolinamido)propyl)-5-(thiophen-2-yl)isoxazole-3-carboxamide]  3.09
24. O=C(NCCCNC(=O)c1cnn[nH]1)c1cc(-c2cccs2)on1 [Compound 104, N-(3-(1H-1,2,3-triazole-5-carboxamido)propyl)-5-(thiophen-2-yl)isoxazole-3-carboxamide]  3.13
25. O=C(NCCCNC(=O)c1cccc(Br)n1)c1cc(-c2cccs2)on1 [Compound 45, N-(3-(6-bromopicolinamido)propyl)-5-(thiophen-2-yl)isoxazole-3-carboxamide]  3.35
26. O=C(NCCCNC(=O)c1cc(-c2ccccc2)on1)c1ccncc1 [Compound 31, N-(3-(isonicotinamido)propyl)-5-phenylisoxazole-3-carboxamide]  3.51
27. O=C(NCCCNC(=O)c1cc(-c2ccccc2)on1)c1cscn1 [Compound 33, 5-phenyl-N-(3-(thiazole-4-carboxamido)propyl)isoxazole-3-carboxamide]  3.7
28. Nc1ccc(C(=O)NCCCNC(=O)c2cc(-c3ccccc3)on2)cc1O [Compound 16, N-(3-(4-amino-3-hydroxybenzamido)propyl)-5-phenylisoxazole-3-carboxamide]  3.72
29. Nc1cccc(C(=O)NCCCNC(=O)c2cc(-c3ccccc3)on2)c1 [Compound 15, N-(3-(3-aminobenzamido)propyl)-5-phenylisoxazole-3-carboxamide]  3.94
30. Cc1cncc(C(=O)NCCCNC(=O)c2cc(-c3ccccc3)on2)n1 [Compound 111, N-(3-(6-methylpyrazine-2-carboxamido)propyl)-5-phenylisoxazole-3-carboxamide]  4.13

same assay, conditions: Homo sapiens, SW-620; inducement of E-cadherin expression in SW620 cells

Cc1cncc(C(=O)NCCCNC(=O)c2cc(-c3ccccc3)on2)n1 [Compound 111, N-(3-(6-methylpyrazine-2-carboxamido)propyl)-5-phenylisoxazole-3-carboxamide] gave an EC50 of 7.2 µM.

same assay, conditions: change in expression level of E-cadherin in response to 10 μM compound, 24 hours, SW620 cells

In order of falling “fold change SW620 ICW” value:
1. N-(3-(5-chlorofuran-2-carboxamido)propyl)-5-phenylisoxazole-3-carboxamide [Compound 113]  4.09 fold
2. Nc1ccc(C(=O)NCCCNC(=O)c2cc(-c3ccccc3)on2)cn1 [Compound 90, N-(3-(6-aminonicotinamido)propyl)-5-phenylisoxazole-3-carboxamide]  2.50 fold
3. Nc1ccc(C(=O)NCCCNC(=O)c2cc(-c3ccccc3)on2)cn1 [Compound 14, N-(3-(6-aminonicotinamido)propyl)-5-phenylisoxazole-3-carboxamide]  0.70 fold

same assay, conditions: inducement of E-cadherin expression in SW620 cells

Molecule “N-(3-(5-chlorofuran-2-carboxamido)propyl)-5-phenylisoxazole-3-carboxamide [Compound 113]” has an EC50 of 4.59 µM.
